Test system: 883617-216-R-J1-PDC complex spheroid viability
Assay: Anticancer human tumor 883617-216-R-J1-PDC patient-derived bladder carcinoma cell line growth inhibition [POLQ]
Settings: for IC50: curve of first compound; for viability, T/C: stronger effect = lower value
Description: Multicellular complex tumor spheroid response to Polymerase (POL) inhibitors (novobiocin, ART-558, RP6685) in combination with a variety of drugs and investigational agents in selected tumor cell lines
The POL inhibitors (novobiocin, ART-558, and RP6685) were evaluated both individually and in combination with standard of care and investigational anticancer small molecules within a complex spheroid model of solid tumors. . Complex spheroids include a stromal component modeled by human endothelial cells (HUVEC) and fibroblasts modeled by human mesenchymal stem cells (MSCs). The concentration ranges selected for each drug and investigational agent were based upon clinically achievable concentrations if the clinical Cmax of the agent was known.
Compounds. The drugs and investigational agents: novobiocin (NSC847541), ART-558 (NSC835418), RP-6685 (NSC848927), peposertib (NSC802822), ceralasertib (NSC780249), elimusertib (NSC800525), camonsertib (NSC841442), AZD-1390 (NSC803789), olaparib (NSC753686), talazoparib (NSC767125), rucaparib (NSC756644), sotorasib (NSC818433), MRTX-1133 (NSC836407), SN-38 (NSC673596), topotecan (NSC609699), epotoside (NSC141540), doxorubicin (NSC123127), gemcitabine (NSC613327), 5-fluorouracil (NSC19893), paclitaxel (NSC125973), vemurafenib (NSC761431), MSA-2 (NSC828583), SN-011 (NSC837082), adavosertib (NSC754352), prexasertib (NSC758257), carboplatin (NSC241240) and oxaliplatin (NSC266046), were obtained from the National Cancer Institute (NCI) Developmental Therapeutics Program Chemical Repository (21). The FDA-approved anticancer drug set is available from the Developmental Therapeutics Program at https://dtp.cancer.gov/organization/dscb/obtaining/. […] The stock solutions were prepared in dimethyl sulfoxide (DMSO, Sigma-Aldrich, St. Louis, MO, cat. D2650), except for the platinum compounds which were prepared in saline (Quality Biological, Gaithersburg, MD, cat. 114-055-101), at 800-fold the tested concentration and stored at -70 degrees C prior to their use. All drugs and investigational agents were tested over a range starting from a high concentration at or near the clinical Cmax and decreasing in half-log increments. If the clinical Cmax for an agent had not been determined, the highest concentration tested was 10 microM, except for SN-38, which was tested at a high concentration of 1 microM.
Cell Culture. All cells were maintained in an incubator at 37 degrees C and 5% CO2 with 95% humidity. The PDC lines were cultured according to standard operating procedures established by the NCI PDMR (https://pdmr.cancer.gov). Table 3 of the manuscript, lists the cell lines along with the number of the three cell types plated to form the mct-spheroids and media for tumor cell growth. After thawing, all PDC lines, except 997537-175-T-J1-PDC and 415267-285-R-J2-PDC, were cultured in Matrigel-coated flasks prepared with a working solution of 1X Ham's F-12 nutrient mix, without supplementation (Thermo Fisher Scientific, cat. 11765054), 100 U/mL penicillin-streptomycin (Thermo Fisher Scientific, cat. 15140122), and 2.5% Matrigel (Corning Inc., Corning, NY, cat. 354248) for the first three passages. The two PDC lines 997537-175-T-J1-PDC and 415267-285-R-J2-PDC were cultured on uncoated flasks. The 857933-349-R-J2-PDC line was cultured in 6C/Colon 1B media containing advanced DMEM/F-12 (Thermo Fisher Scientific, cat. 12634028), 10 mM HEPES (Thermo Fisher Scientific, cat. 15630080), 1X GlutaMAX supplement (Thermo Fisher Scientific, cat. 35050061), 0.1 mg/mL primocin (InvivoGen, San Diego, CA, cat. ant-pm-2), 10% defined fetal bovine serum, heat inactivated (HyClone Laboratories Inc., Logan, UT, cat. SH30070.03HI), 50% L-WRN conditioned media (ATCC, cat. CRL-3276), 1.25 mM N-Acetyl-L-cysteine (Sigma-Aldrich, cat. A9165), 10 mM nicotinamide (Sigma-Aldrich, cat. N0636), 1X B-27 supplement (Thermo Fisher Scientific, cat. 17504044), 1X N-2 supplement (Thermo Fisher Scientific, cat. […]

[1] = second compound 0.0316 µM, first compound 0.0316 µM
[2] = second compound 0.0316 µM, first compound 0.1 µM
[3] = second compound 0.0316 µM, first compound 0.316 µM
[4] = second compound 0.0316 µM, first compound 1 µM
[5] = second compound 0.1 µM, first compound 0.0316 µM
[6] = second compound 0.1 µM, first compound 0.1 µM
[7] = second compound 0.1 µM, first compound 0.316 µM
[8] = second compound 0.1 µM, first compound 1 µM
[9] = second compound 0.316 µM, first compound 0.0316 µM
[10] = second compound 0.316 µM, first compound 0.1 µM
[11] = second compound 0.316 µM, first compound 0.316 µM
[12] = second compound 0.316 µM, first compound 1 µM
[13] = second compound 1 µM, first compound 0.0316 µM
[14] = second compound 1 µM, first compound 0.1 µM
[15] = second compound 1 µM, first compound 0.316 µM
[16] = second compound 1 µM, first compound 1 µM
[17] = second compound 3.16 µM, first compound 0.0316 µM
[18] = second compound 3.16 µM, first compound 0.1 µM
[19] = second compound 3.16 µM, first compound 0.316 µM
[20] = second compound 3.16 µM, first compound 1 µM
[21] = second compound 10 µM, first compound 0.0316 µM
[22] = second compound 10 µM, first compound 0.1 µM
[23] = second compound 10 µM, first compound 0.316 µM
[24] = second compound 10 µM, first compound 1 µM
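Also: spheroids exposed to compounds for seven days before readout.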
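For viability, T/C in this document: 100% = DMSO vehicle control viability.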

## C=CCn1c(=O)c2cnc(Nc3ccc(N4CCN(C)CC4)cc3)nc2n1-c1cccc(C(C)(C)O)n1 + Nc1ccc(C#CCN(C(=O)Cc2ncc(C(F)(F)F)cc2C(F)(F)F)c2ccc(F)cc2)nn1
Second compound 0.0316 µM
  IC50: > 1000 nM
Second compound 0.1 µM
  IC50: > 1000 nM
Second compound 0.316 µM
  IC50: > 1000 nM
Second compound 1 µM
  IC50: 978 nM
Second compound 3.16 µM
  IC50: > 1000 nM
Second compound 10 µM
  IC50: 924 nM
Second compound 0.0316 µM, first compound 0.00316 µM
  viability, T/C: 102%
Second compound 0.0316 µM, first compound 0.01 µM
  viability, T/C: 98.9%
[1]
  viability, T/C: 84.3%
[2]
  viability, T/C: 113%
[3]
  viability, T/C: 96.4%
[4]
  viability, T/C: 59.8%
Second compound 0.1 µM, first compound 0.00316 µM
  viability, T/C: 100%
Second compound 0.1 µM, first compound 0.01 µM
  viability, T/C: 95.6%
[5]
  viability, T/C: 95.8%
[6]
  viability, T/C: 94.1%
[7]
  viability, T/C: 88.3%
[8]
  viability, T/C: 86.8%
Second compound 0.316 µM, first compound 0.00316 µM
  viability, T/C: 102%
Second compound 0.316 µM, first compound 0.01 µM
  viability, T/C: 115%
[9]
  viability, T/C: 106%
[10]
  viability, T/C: 108%
[11]
  viability, T/C: 92.4%
[12]
  viability, T/C: 63.6%
Second compound 1 µM, first compound 0.00316 µM
  viability, T/C: 101%
Second compound 1 µM, first compound 0.01 µM
  viability, T/C: 96.5%
[13]
  viability, T/C: 81.1%
[14]
  viability, T/C: 101%
[15]
  viability, T/C: 103%
[16]
  viability, T/C: 49%
Second compound 3.16 µM, first compound 0.00316 µM
  viability, T/C: 115%
Second compound 3.16 µM, first compound 0.01 µM
  viability, T/C: 109%
[17]
  viability, T/C: 85.7%
[18]
  viability, T/C: 99.3%
[19]
  viability, T/C: 115%
[20]
  viability, T/C: 58.4%
Second compound 10 µM, first compound 0.00316 µM
  viability, T/C: 126%
Second compound 10 µM, first compound 0.01 µM
  viability, T/C: 101%
[21]
  viability, T/C: 108%
[22]
  viability, T/C: 116%
[23]
  viability, T/C: 128%
[24]
  viability, T/C: 45.1%

## Nc1ccn(C2OC(CO)C(O)C2(F)F)c(=O)n1 (centres undefined) + Nc1ccc(C#CCN(C(=O)Cc2ncc(C(F)(F)F)cc2C(F)(F)F)c2ccc(F)cc2)nn1
Second compound 0.0316 µM
  IC50: < 31.6 nM
Second compound 0.1 µM
  IC50: < 31.6 nM
Second compound 0.316 µM
  IC50: < 31.6 nM
Second compound 1 µM
  IC50: < 31.6 nM
Second compound 3.16 µM
  IC50: < 31.6 nM
Second compound 10 µM
  IC50: < 31.6 nM
[1]
  viability, T/C: 33.7%
[2]
  viability, T/C: 33.4%
[3]
  viability, T/C: 39.8%
[4]
  viability, T/C: 33.9%
Second compound 0.0316 µM, first compound 3.16 µM
  viability, T/C: 56%
Second compound 0.0316 µM, first compound 10 µM
  viability, T/C: 37.3%
[5]
  viability, T/C: 34.5%
[6]
  viability, T/C: 35.1%
[7]
  viability, T/C: 38.2%
[8]
  viability, T/C: 32.4%
Second compound 0.1 µM, first compound 3.16 µM
  viability, T/C: 37.5%
Second compound 0.1 µM, first compound 10 µM
  viability, T/C: 47.1%
[9]
  viability, T/C: 32.5%
[10]
  viability, T/C: 38.7%
[11]
  viability, T/C: 39.3%
[12]
  viability, T/C: 35.9%
Second compound 0.316 µM, first compound 3.16 µM
  viability, T/C: 35.1%
Second compound 0.316 µM, first compound 10 µM
  viability, T/C: 34.3%
[13]
  viability, T/C: 43.1%
[14]
  viability, T/C: 39.9%
[15]
  viability, T/C: 45.2%
[16]
  viability, T/C: 39.8%
Second compound 1 µM, first compound 3.16 µM
  viability, T/C: 43.3%
Second compound 1 µM, first compound 10 µM
  viability, T/C: 37.6%
[17]
  viability, T/C: 44.7%
[18]
  viability, T/C: 34.4%
[19]
  viability, T/C: 35.4%
[20]
  viability, T/C: 60.7%
Second compound 3.16 µM, first compound 3.16 µM
  viability, T/C: 46.2%
Second compound 3.16 µM, first compound 10 µM
  viability, T/C: 35.6%
[21]
  viability, T/C: 62.4%
[22]
  viability, T/C: 28.1%
[23]
  viability, T/C: 34.5%
[24]
  viability, T/C: 47.7%
Second compound 10 µM, first compound 3.16 µM
  viability, T/C: 50.4%
Second compound 10 µM, first compound 10 µM
  viability, T/C: 37.6%
